Here are results for 1 compound from paper PMC7997574, “Lead Optimization of Benzoxazolone Carboxamides as Orally Bioavailable and CNS Penetrant Acid Ceramidase Inhibitors” (Journal of Medicinal Chemistry, 2020).

≈ marks a conversion by molar mass, not a printed value. Where “and” joins values, the source holds several entries; their conditions need not be identical. Equal values may be shown once. Where only a bound is given, the exact number is not on record here.

Usually solubility stands for the dissolved amount per volume that the medium holds.

Data set [1] can be described thus: In vitro microsomal stability study. The data set is classed as in vitro ADME. As to conditions: mouse liver microsomes. In short, it runs like this: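 Test compound at 4.6 μM final was incubated at 37 °C with mouse liver microsomes in 0.1 M Tris HCl (pH 7.4), with an NADPH/G6P/G6PDH/MgCl2 cofactor system, and sampled at 0–60 min. Parent remaining relative to t = 0 was measured by LC/MS/MS. t1/2 came from one-phase decay regression, as the mean of at least two independent experiments.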

A short description of data set [2]: Aqueous kinetic solubility assay. The data set is classed as physicochemical. Particulars: PBS, pH 7.4. In short, it runs like this:
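Kinetic solubility from 10 mM MeCN stock spiked into PBS pH 7.4 at 250 μM target, shaken 1 h at 25 °C, then centrifuged. Dissolved compound in supernatant quantified by UPLC/MS with UV at 215 nm; mean of ≥2 experiments.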

Regarding `CC(C)CNC(=O)n1c(=O)oc2cc(C3CCN(C)CC3)ccc21` [22m, N-Isobutyl-6-(1-methyl-4-piperidyl)-2-oxo-1,3-benzoxazole-3-carboxamide], the “m-LM [% at 60 min]” value in data set [1] (% remaining at 60 min) is 76% and 80%. The half-life at 4.6 μM in data set [1] (pH 7.4, read-out: m-LM t1/2) is more than 1 h. In data set [2], this compound yielded a solubility at 1 h of 240 µM (≈ 79.5 µg/mL).
